Key:
[1] = Cytotoxicity against Flp-In-293 cells expressing human ABCB1 assessed as reduction in cell viability measured after 72 hrs by SRB assay; type: ADME, cell-based; conditions: Flp-In-293, 72 h
[2] = Cytotoxicity against Flp-In-293 cells assessed as reduction in cell viability measured after 72 hrs by SRB assay; type: cell-based; conditions: Homo sapiens, Flp-In-293, 72 h
[3] = Cytotoxicity against human KB-VIN cells assessed as reduction in cell viability measured after 72 hrs by SRB assay; type: cell-based; conditions: KBVIN
HeLa = test: Cytotoxicity against human HeLa cells assessed as reduction in cell viability measured after 72 hrs by SRB assay; type: cell-based

Measured: IC50

COc1ccc(CCN(C)CCCC(C#N)(c2ccc(OC)c(OC)c2)C(C)C)cc1OC (centres undefined)
> 50 µM: [1] | [2] | [3] | HeLa

Reference: ChEMBL document CHEMBL4765356, “Synthesis and biological evaluation of thiophenylbenzofuran derivatives as potential P-glycoprotein inhibitors” (Eur J Med Chem, 2020)
